From US6660276B1, “Peptides recognized by melanoma-specific cytotoxic lymphocytes, and uses therefor” (The University of Virginia Patent Foundation, priority 1994, dated 2003)
One block for each substance: values may come before it. Where no end group is shown, it is not given here.

Legend:
Assay type in all cases: cell-based, human
[1] = test system: melanoma specific CTL VMM5; test: Reconstitution of melanoma-specific CTL epitope on peptide-pulsed 51Cr-labelled T2 cells, chromium release assay, VMM5 CTL; details: for effect on epitope reconstitution: concentrations up to 10 nM
Protocol: (§1) Cell-mediated killing was determined in vitro using a 4-h chromium release assay. 51Cr-labeled target cells were plated at 2×10^3 cells/well in triplicate on 96-well V-bottom plates (Costar, Cambridge, Mass.) with varying numbers of effector cells in a final volume of 250 microl. Wells containing either culture medium and target cells only or 1 M HCl and target cells served as background 51Cr release controls and total release controls, respectively. The plates were centrifuged at 100×g for 3 min and incubated at 37° C. in 5% CO2 for 4 h. The plates were again centrifuged, and 0.20 ml of medium from each well was removed for counting in a gamma counter. The cytotoxic index was calculated as: [formula] […] Effector cells were added in 100 microl assay medium to give an E:T ratio of 10:1, and were incubated at 37° C. The remainder of the assay is performed as in standard chromium release assays described above. Wells containing peptide and target cells but no CTL were used as controls to rule out toxicity of the peptides themselves. […] HLA-A2.1 molecules were immunoaffinity purified from detergent lysates of the human melanoma cell line DM6. The associated peptides were released by acid extraction, separated from HLA-A2.1 and antibody by filtration, and fractionated by multiple stages of HPLC. […] L. Slingluff Jr., et al, J. Immunol. (1993) […], 2955, by using a gradient of acetonitrile/0.085% trifluoroacetic acid (TFA) in 0.1% TFA with acetonitrile increasing from 0 to 9% (0-5 min), 9 to 36%(5-55min), 36 to 60% (55-62min) (v/v), collecting one-minute fractions. In FIG. 8B Fractions 2 and 3 from the separation shown in panel A were pooled and rechromatographed with a 55 minute gradient of 0 to 30% acetonitrile/0.1% heptafluorobutyric acid (HFBA) in 0.1% HFBA, collecting one-minute fractions. For both panels, peptide fractions were incubated for 2-3 h with 2×10^3 51Cr-labelled T2 cells in 150 ll assay media per well in 96-well plates. […]

[2] = test system: melanoma specific CTL DM204-13; test: Reconstitution of melanoma-specific CTL epitope on peptide-pulsed 51Cr-labelled T2 cells, chromium release assay, DM204-13 CTL; details: for effect on epitope reconstitution: concentrations up to 10 nM
Protocol: as §1

[3] = test system: HLA-A2.1 restricted melanoma specific CTL lines (VMM5, VMM6, DM169-13, DM204-13, LD1); test: Chromium release assay, peptide-preincubated T2 cells, panel of HLA-A2.1 restricted melanoma specific CTL lines from different patients; details: for activity in reconstituting recognition by CTL lines from 3 additional patients: at equal or higher concentrations than 946 (0.1-1 nM)
Protocol: Cell-mediated killing was determined in vitro using a 4-h chromium release assay. 51Cr-labeled target cells were plated at 2×10^3 cells/well in triplicate on 96-well V-bottom plates (Costar, Cambridge, Mass.) with varying numbers of effector cells in a final volume of 250 microl. Wells containing either culture medium and target cells only or 1 M HCl and target cells served as background 51Cr release controls and total release controls, respectively. The plates were centrifuged at 100×g for 3 min and incubated at 37° C. in 5% CO2 for 4 h. The plates were again centrifuged, and 0.20 ml of medium from each well was removed for counting in a gamma counter. The cytotoxic index was calculated as: [formula] […] Effector cells were added in 100 microl assay medium to give an E:T ratio of 10:1, and were incubated at 37° C. The remainder of the assay is performed as in standard chromium release assays described above. Wells containing peptide and target cells but no CTL were used as controls to rule out toxicity of the peptides themselves. […] To determine whether peptide 946 was a generally relevant epitope for HLA-A2.1 restricted melanoma specific CTL, lines from 3 additional patients were tested. CTL lines VMM5 and VMM6 were generated by stimulation with autologous tumor. VMM5 CTL were maintained on allogeneic A2.1^+ melanoma DM6 after specificity was obtained, C. L. Slingluff Jr. et al., J. Immunol. 150, 2955 (1993). DM169-13 and DM204-13 CTL were generated by stimulation with allogeneic A2.1^+ melanoma DM13, N. J. Crowley et al., J. Immunol. 146, 1692 (1991), then maintained with DM6. LD1 CTL were stimulated on a rotating schedule of stimulating logeneic A2.1^+ melanomas DM6, DM13, and DM93. DM93 is an HLA-A2.1^+ melanoma used as a positive control. […] T2 cells were preincubated with the peptides whose (M+H)^+ values are indicated in the legend, FIG. 12. […] All other peptides were used at a concentration of 10 nM except 250 nM for DM169 and 0.1 nM for LD1. Asterisks (*) mark peptides not evaluated. The sequences of the peptides 864 (Seq. ID No. 88), 946 (Seq. ID No. 39), 1046 (Seq. ID No. 89) are described in the text. Peptide 1030 has the sequence […] (SEQ ID NO:90), (related to peptide from tyrosinase. molecule). […] An additional peptide Try […] (SEQ ID NO 96), which originates from tyrosinase and had been identified by Boon and colleagues as an HLA-A2.1 restricted melanoma specific T cell epitope, was also evaluated. None of 4 CTL lines recognized cells incubated with this peptide.

[4] = T2 cells, synthetic peptide with equimolar Leu/Ile at X, read-out: half-maximal reconstitution of the epitope

Substance: Ala Xaa Tyr Asp Ala Thr Tyr Glu Thr [Peptide 1046]
- effect on epitope reconstitution [1]: no effect
- effect on epitope reconstitution [2]: no effect
- activity in reconstituting recognition by CTL lines from 3 additional patients [3]: neither 864 nor 1046 had any detectable activity

Substance: SMAPGNTSV [Peptide 864]
- effect on epitope reconstitution [1]: no effect
- effect on epitope reconstitution [2]: no effect
- activity in reconstituting recognition by CTL lines from 3 additional patients [3]: neither 864 nor 1046 had any detectable activity

Substance: Try Met Asn Gly Thr Met Ser Gln Val (YMNGTMSQV) [SEQ ID NO 96, originates from tyrosinase, reference compound]
- CTL lines that recognized cells incubated with the peptide ([3]; 4 CTL lines tested): None of 4

- EC50 [1, 4]: 1 to 10 pM
- EC50 [2, 4]: 1 to 10 pM
Substance: Tyr Xaa Glu Pro Gly Pro Val Thr Ala [Peptide 946]
- EC50 ([3]; dose response curves for two of the 3 additional CTL lines, read-out: half-maximal lysis): 1 to 10 pM
- patients / CTL lines whose T-cells recognized the HLA-A2.1-associated peptide ([3]; five melanoma-specific CTL lines from five patients): 5 out of 5 and all five lines recognize
- reconstitution of recognition by CTL lines from 3 additional patients ([3]; peptide at 0.1-1 nM, T2 cells, FIG. 12): reconstituted recognition
